Laboratory results from paper PMC10851555, “Safinamide, an inhibitor of monoamine oxidase, modulates the magnitude, gating, and hysteresis of sodium ion current” (BMC Pharmacology & Toxicology, 2024).
Like-named read-outs stand apart in the source and are kept apart here.

Tests used:
Assay type in all cases: cell-based, rat
[1] = tested on: voltage-gated sodium ion (NaV) channels in pituitary GH3 cells; experiment: Whole-cell patch-clamp of INa induced by a 30-ms depolarizing pulse (−100 to −10 mV) in GH3 cells; conditions: for reversal of SAF-mediated increase in INa(T): 10 μM added during exposure to SAF (30 μM); for reversal of SAF-mediated increase in INa(T) / effect on magnitude of INa(T): n = 7; for effect on magnitude of INa(T): dopamine or serotonin alone
[2] = tested on: voltage-gated sodium ion (NaV) channels in pituitary GH3 cells; experiment: Whole-cell INa(T) decay during a 1-s, 20-Hz train of depolarizing pulses in GH3 cells; conditions: for effect on SAF-induced increase in decaying time constant of INa(T): 10 μM added in the presence of 10 μM SAF; for decaying time constant of INa(T) during train of depolarizing pulses: 10 μM alone, control 66 ± 5 ms, n = 7
Procedure: Shortly before experiments, GH3 was carefully suspended in normal Tyrode’s solution at room temperature (20–25 °C). A few drops of the suspension containing cell clumps were immediately added to a custom-built chamber on the stage of an inverted Diaphot-200 microscope (Nikon, Tokyo, Japan). Pipettes were pulled from Kimax-51 soft-glass capillaries (#34500-99; Kimble, Vineland, NJ) by using a Narishige PP-830 Vertical Puller (Tokyo, Japan), and their tips were fire-polished using a microforge (MF-83, Narishige). During the measurements, an electrode with a tip resistance of 2–4 MΩ, which was tightly inserted into a holder, was maneuvered using a WR-98 micromanipulator (Narishige). Patch-clamp experiments were performed in the voltage-clamp mode with either cell-attached or whole-cell configuration (rupturing of the membrane patch after GΩ formation) by using a RK-400 Patch-Clamp Amplifier (Bio-Logic, Claix, France) connected to a laptop. Shortly before GΩ formation, potential correction was performed for a liquid junction potential, which developed at the electrode’s tip because of the difference in the compositions of the internal and bath solutions.
SAF is efficacious as an add-on therapy following subthalamic nucleus deep brain stimulation in patients with Parkinson’s disease. Therefore, we investigated whether SAF could modify the inactivation of currents induced by a train of depolarizing stimuli. The test cells were maintained at −80 mV and subjected to repetitive depolarization to −10 mV (40 ms per pulse; rate of 20 Hz; duration of 1 s). Similar to the findings of relevant studies, during the control period (the absence of SAF), INa(T) inactivation was noticed to be induced by 1 s of repetitive depolarization stimuli (−80 to −10 mV) with a decaying time constant of 65 ± 4 ms (n = 7; Fig. 6A, 6B and 6C). […] In the presence of 3 and 10 μM SAF, the exponential time course of INa(T) induced by the same train of depolarizing pulses was longer at 107 ± 5 ms (n = 7, P < 0.05) and 124 ± 6 ms (n = 7, P < 0.05), respectively. Furthermore, as MGB and ranolazine have been reported to suppress the amplitude of INa effectively, we added ranolazine (Ran; 10 μM) and mirogabalin (MGB; 10 μM) separately in the presence of 10 μM SAF. […] The application of Ran (10 μM) or MGB (10 μM) alone decreased the decaying time constant of INa(T) during the same train of depolarizing pulses to 39 ± 4 ms (n = 7, P < 0.05) or 42 ± 4 ms (n = 7, P < 0.05), respectively, from a control value of 66 ± 5 ms (n = 7). Thus, in addition to increasing the magnitude of INa(T), SAF prominently affects the decaying of INa(T) subjected to a 1-s train of depolarizing pulses.
Fig. 6 Effect of SAF on INa(T) decay induced by a train of depolarizing pulses in GH3 cells. The train of pulses comprised twenty 40-ms pulses (voltage increased to −10 mV) with 10-ms intervals at −80 mV for a total duration of 1 s. (A) Current traces during the control period (a, blue) and during exposure to 10 μM SAF (b, red). The voltage-clamp protocol used is indicated atop the current traces. In panel A, the third graphs (blue and red) from the top are the expanded forms of the second graphs (brown dashed boxes). (B) The relative amplitude of INa(T) versus pulse train duration in the absence (blue open circles) and presence (red open squares) of 10 μM SAF (mean ± standard error of the mean; n = 7 for each point). The INa(T) amplitudes were normalized by dividing the current amplitudes at the end of each pulse-train stimulation by those obtained at the beginning of the pulse train stimulation. The gray continuous lines on which the data points are overlaid are reliably fitted with a single exponential.

[3] = tested on: single NaV channels in GH3 cells; experiment: Cell-attached single-channel NaV current recordings in GH3 cells; conditions: n = 7
Procedure: The composition of the external or bath solution [4-(2-hydroxyethyl)-1-piperazineethanesulfonic acid (HEPES)-buffered normal Tyrode’s solution] was as follows: 136.5 mM NaCl, 1.8 mM CaCl2, 5.4 mM KCl, 0.53 mM MgCl2, 5.5 mM glucose, and 5.5 mM HEPES–NaOH (pH 7.4). To measure K^+ currents (data not shown), we filled a patch pipette with an internal solution comprising 140 mM KCl, 1 mM MgCl2, 3 mM adenosine 5′-triphosphate disodium salt, 0.1 mM guanosine 5′-triphosphate disodium salt, 0.1 mM ethylene glycol tetraacetic acid, and 5 mM HEPES–KOH buffer (pH 7.2). To record the whole-cell INa, the K^+ in the internal solution was substituted with Cs^+, and the pH of the solution was adjusted to 7.2 by adding cesium hydroxide. In the single-channel experiments performed to record NaV currents, the pipette was filled with a Na^+-rich solution containing 136 mM NaCl, 0.53 mM MgCl2, 5.5 mM glucose, and 5.5 mM HEPES–NaOH (pH 7.2). The bath medium was a K^+-rich solution comprising 130 mM KCl, 10 mM NaCl, 3 mM MgCl2, 6 mM glucose, and 10 mM HEPES-KOH (pH 7.4). The solutions and culture media were generally filtered on the day of use by using sterile Acrodisc Syringe Filters containing a 0.2-μm Supor Membrane (Bio-Check; New Taipei City, Taiwan).
Single-channel NaV currents induced by depolarizing pulses ranging from −100 to −10 mV were measured and subsequently analyzed using pCLAMP 10.7. The opening events of the channels were generally evaluated through multi-Gaussian adjustments of the distribution of amplitude across channels. Functional independence between channels was determined by comparing the observed stationary probabilities with the values calculated based on the binomial law. For dwell-time analyses, only a single channel was used in the patch-clamp experiment.
To elucidate the mechanisms underlying the effects of SAF on the magnitude of INa, we investigated the actions of SAF and SAF plus MGB on single-channel NaV currents. This experiment was performed using the cell-attached configuration of the voltage-clamp test. Test cells were placed in K^+-rich solution, and the recording pipette was filled with Na^+-rich solution. SAF (10 μM) increased channel activity and decelerated current inactivation when the cells were exposed to depolarization stimuli ascending from –100 to –10 mV (rate of 0.1 Hz; Fig. 9A). Furthermore, the addition of MGB (10 μM) in the presence of 10 μM SAF reduced the probability of channel opening. […] Moreover, with the presence of 10 μM SAF, the mean open time of NaV channels was prolonged to […] (n = 7, P < 0.05) msec from a control value of 2.3 ± 0.3 msec (n = 7). […] Consistent with these findings, the mean open time of the NaV channel in the presence of 10 μM SAF (5.9 ± 1.1 ms; n = 7; P < 0.05) was longer than that in the control period (2.3 ± 0.3 ms, n = 7); the subsequent further addition of 10 μM MGB decreased the mean open time to 3.7 ± 0.7 ms (n = 7, P < 0.05) (Fig. 9B). […] MGB added during SAF exposure reversed the SAF-induced increase in NaV channel activity.

[4] = tested on: voltage-gated sodium ion (NaV) channels in pituitary GH3 cells; experiment: Window INa [INa(W)] induced by ascending ramp voltage (−100 to +40 mV over 200 ms) in GH3 cells; conditions: Ran 10 μM added in the presence of SAF 10 μM
Text: The sigmoidal relationship between Vramp-induced INa(W) and the upsloping Vramp (nonlinear current–voltage relationship) was investigated and fitted with the Boltzmann function as follows: [drawing 2]
where V is the membrane potential in millivolts, Erev is the reversal potential of INa, G is the INa conductance in nanosiemens, I is the current, Vh is the voltage at which half-maximal activation or inactivation of the current occurs, q is the apparent gating charge, F is Faraday’s constant, R is the universal gas constant, and T is the absolute temperature.
The free energy ∆G0 for the gating of INa(W) was determined by assuming a two-state gating model [equilibrium between closed (resting) and open states] of the NaV channel. The ∆G0 for the activation of INa(W) at 0 mV could be calculated as follows: q × F × V1/2 [45, 46]. The standard errors in ∆G0 ( [drawing 3] ) could be calculated as follows: […]
In the present study, we investigated whether the addition of SAF to GH3 cells modulates the magnitude of INa(W) induced by ascending Vramp. Test cells were maintained at −80 mV and subjected to Vramp ascending from −100 to +40 mV over 200 ms (i.e., ramp speed of 0.7 mV/ms) to induce INa(W). […] The ∆area values of INa(W) in the absence and presence of SAF and SAF plus Ran were calculated (Fig. 7B).
Fig. 7 Stimulatory effects of SAF on window INa [INa(W)] induced by an ascending ramp voltage Vramp in GH3 cells. For the experiments, the test cells were maintained at −80 mV and subjected to Vramp ranging from −100 to +40 mV over 200 ms (ramp speed of 0.7 mV/ms). (A) INa(W) trace in the absence (a, blue) and presence (b, red) of 10 μM SAF. The inset indicates the Vramp protocol, and the downward deflection indicates inward-directed current. The continuous gray lines corresponding to the untreated or SAF-treated (10 μM) cells were fitted (least-squares minimization) with the Boltzmann equation. The values of […] and q (apparent gating charge) induced by ascending Vramp over 200 ms in the absence (blue) of SAF were, respectively, −34 mV and 2.1 e; the corresponding values in the presence (red) of 10 μM SAF were −38 mV and 2.8 e, respectively. (B) Summary graph illustrating the effects of SAF (3 and 10 μM) and SAF (10 μM) plus Ran (10 μM) on the Δarea of INa(W) in GH3 cells (mean ± standard error of the mean; n = 7 for each point). The value of Δarea was measured at a voltage ranging from −80 and +40 mV, which corresponded to INa(W) induced by the ascending Vramp. […] (C) Summary graph illustrating the effects of SAF (3 and 10 μM) and SAF plus Ran (10 μM) on ΔG0 (mean ± standard error of the mean; n = 7 for each point). The estimation of ΔG0 for the induction of instantaneous INa(W) is described in the Materials and Methods section.

[5] = 10 μM MGB added in the presence of 10 μM SAF

Q: Cc1c(F)c(F)c(COC(=O)[C@@H]2[C@H](/C=C(\Cl)C(F)(F)F)C2(C)C)c(F)c1F (racemic) [Tef, tefluthrin] was tested. Which “effect on rapid inward current (INa) induced by short depolarizing pulse” value (shortened to “effect on rapid inward current”) ([1]; 10 μM) did it give?
A: stimulated

Q: How did the “effect on SAF-induced increase in decaying time constant of INa(T)” value [2] turn out when CCC1=C[C@@H]2[C@H](C1)C[C@]2(CN)CC(=O)O [MGB, mirogabalin] was run?
A: effectively attenuated the SAF-induced increase in the decaying time constant

Q: And the “decaying time constant of INa(T) during train of depolarizing pulses” value [2]?
A: 42 ± 4 ms

Q: And the “mean open time of the NaV channel” value [3, 5]?
A: 3.7 ± 0.7 ms

Q: And the “open-state probability of the NaV channel” value [3, 5]?
A: 0.041 ± 0.007

Q: What about the “amplitude of the single-channel current” value ([3]; SAF plus MGB, control 2.01 ± 0.35 pA) of the same compound?
A: 2.00 ± 0.44 pA

Q: Which results are given for COc1ccccc1OCC(O)CN1CCN(CC(=O)Nc2c(C)cccc2C)CC1 (stereo not drawn) [Ran, ranolazine]?
A: effect on SAF-induced increase in decaying time constant of INa(T) [2]: effectively attenuated the SAF-induced increase in the decaying time constant; decaying time constant of INa(T) during train of depolarizing pulses [2]: 39 ± 4 ms; effect on SAF-mediated increase in ∆G0 of INa(W) [4]: effectively attenuated the SAF-mediated increase in ∆G0; effect on SAF-mediated increase in ∆area of INa(W) [4]: reversed the SAF-mediated increase

Q: For NC1=N[C@H](O)[C@H]2[C@H]3O[C@]4(O)O[C@@H]([C@@H](O)[C@@]2(N1)[C@@H]4O)[C@]3(O)CO [TTX, tetrodotoxin], which “amplitude of INa(L)” value [1] is on record?
A: 2 ± 1 pA

Q: And the “amplitude of INa(T)” value [1]?
A: 18 ± 2 pA

Q: What about the “effect on rapid inward current” value [1] of the same compound?
A: blocked

Q: How did the “reversal of SAF-mediated increase in INa(T)” value [1] turn out when NCCc1ccc(O)c(O)c1 [dopamine] was run?
A: neither dopamine nor serotonin reversed the SAF-mediated increase in INa(T)

Q: And the “effect on magnitude of INa(T)” value [1]?
A: neither dopamine nor serotonin altered the magnitude of INa(T)

Q: For C/C=C/C1C(C(=O)OCc2c(F)c(F)c(COC)c(F)c2F)C1(C)C (stereo not drawn) [metofluthrin], which “effect on rapid inward current” value ([1]; 10 μM) is on record?
A: stimulated

Q: With NCCc1c[nH]c2ccc(O)cc12 [serotonin] as the compound, how does the “reversal of SAF-mediated increase in INa(T)” value [1] read?
A: neither dopamine nor serotonin reversed the SAF-mediated increase in INa(T)

Q: And the “effect on magnitude of INa(T)” value [1]?
A: neither dopamine nor serotonin altered the magnitude of INa(T)
